ChEMBL document CHEMBL1201862, “PubChem BioAssay data set” (2004)
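The compound was tested at five concentrations on cells cultured in 96-well plates, with a 48-hour exposure period. GI50: concentration for 50% inhibition of growth.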 Calls of active or inactive are those of the source. No stated cut-off is given here; in the data, active = GI50 up to about 1.1 µM and inactive = higher.

Experiments:
Assay in all cases: inhibition of tumour cell growth, NCI panel, 48 h
SW-620 = test system: SW-620
HCT-15 = test system: HCT-15
SF-295 = test system: SF-295
DU-145 = test system: DU-145
OVCAR-3 = test system: OVCAR-3
A549 = test system: A549
Malme-3M = test system: Malme-3M
UACC-62 = test system: UACC-62
SK-MEL-2 = test system: SK-MEL-2
786-0 = test system: 786-0
SK-OV-3 = test system: SK-OV-3
SF-539 = test system: SF-539
T47D = test system: T47D
OVCAR-4 = test system: OVCAR-4
RXF 393 = test system: RXF 393
KM12 = test system: KM12
SNB-75 = test system: SNB-75
HCC 2998 = test system: HCC 2998
K562 = test system: K562
MDA-MB-435 = test system: MDA-MB-435
HL-60 = test system: HL-60
OVCAR-8 = test system: OVCAR-8
OVCAR-5 = test system: OVCAR-5
NCI-H226 = test system: NCI-H226
A498 = test system: A498
RPMI-8226 = test system: RPMI-8226
HT-29 = test system: HT-29
SK-MEL-5 = test system: SK-MEL-5
UACC-257 = test system: UACC-257
CCRF-CEM = test system: CCRF-CEM
IGROV-1 = test system: IGROV-1
SR = test system: SR
UO-31 = test system: UO-31
CAKI-1 = test system: CAKI-1
NCI/ADR-RES = test system: NCI/ADR-RES
PC-3 = test system: PC-3
MOLT-4 = test system: MOLT-4
NCI-H460 = test system: NCI-H460
Hs-578T = test system: Hs-578T
COLO 205 = test system: COLO 205
SNB-19 = test system: SNB-19
SF-268 = test system: SF-268
HOP-62 = test system: HOP-62
NCI-H23 = test system: NCI-H23
ACHN = test system: ACHN
LOX IMVI = test system: LOX IMVI
MCF7 = test system: MCF7
M14 = test system: M14
SN12C = test system: SN12C
NCI-H522 = test system: NCI-H522
BT-549 = test system: BT-549
MDA-N = test system: MDA-N
EKVX = test system: EKVX
HCT-116 = test system: HCT-116
HOP-92 = test system: HOP-92
SK-MEL-28 = test system: SK-MEL-28
MDA-MB-231 = test system: MDA-MB-231
U-251 = test system: U-251
TK-10 = test system: TK-10

In the case of COc1cc(S(=O)(=O)Nc2ccc(-c3csc(N4C(=O)C(Cl)C4c4cccc(Oc5ccccc5)c4)n3)cc2)ccc1Cl (stereo not given), the GI50 (SW-620) is reported as 36.1 µM (inactive), the GI50 (HCT-15) is reported as > 100 µM and the GI50 (SF-295) is reported as > 100 µM (inactive). For the same compound, the GI50 (DU-145) was 21.7 µM (inactive), the GI50 (OVCAR-3) was 58.5 µM (inactive) and the GI50 (A549) was > 100 µM (inactive). For the same compound, the GI50 (Malme-3M) was > 100 µM (inactive), the GI50 (UACC-62) was 24.5 µM (inactive) and the GI50 (SK-MEL-2) was 31 µM (inactive). For the same compound, the GI50 (786-0) was 13.7 µM (inactive), the GI50 (SK-OV-3) was > 100 µM (inactive) and the GI50 (SF-539) was 16.1 µM (inactive). For the same compound, the GI50 (T47D) was 24.4 µM (inactive), the GI50 (OVCAR-4) was 4.91 µM (inactive) and the GI50 (RXF 393) was 3.13 µM (inactive). For the same compound, the GI50 (KM12) was 26.9 µM (inactive), the GI50 (SNB-75) was 22.3 µM (inactive) and the GI50 (HCC 2998) was > 100 µM (inactive). The GI50 (K562) was 27.9 µM (inactive), the GI50 (MDA-MB-435) was 20.3 µM (inactive) and the GI50 (HL-60) was 20.5 µM (inactive). For the same compound, the GI50 (OVCAR-8) was 30.3 µM (inactive), the GI50 (OVCAR-5) was 38.5 µM (inactive) and the GI50 (NCI-H226) was 18.8 µM (inactive). For the same compound, the GI50 (A498) was 25.2 µM (inactive), the GI50 (RPMI-8226) was 19.7 µM (inactive) and the GI50 (HT-29) was 49.5 µM (inactive). For the same compound, the GI50 (SK-MEL-5) was 29.1 µM (inactive), the GI50 (UACC-257) was 39.6 µM (inactive) and the GI50 (CCRF-CEM) was 3.31 µM (inactive). For the same compound, the GI50 (IGROV-1) was 2.71 µM (inactive), the GI50 (SR) was 3.13 µM (inactive) and the GI50 (UO-31) was 21.2 µM (inactive). For the same compound, the GI50 (CAKI-1) was 20.2 µM (inactive), the GI50 (NCI/ADR-RES) was > 100 µM (inactive) and the GI50 (PC-3) was 17.1 µM (inactive). For the same compound, the GI50 (MOLT-4) was 15.3 µM (inactive), the GI50 (NCI-H460) was > 100 µM (inactive) and the GI50 (Hs-578T) was > 100 µM (inactive). For the same compound, the GI50 (COLO 205) was 21.5 µM (inactive), the GI50 (SNB-19) was > 100 µM (inactive) and the GI50 (SF-268) was 15 µM (inactive). The GI50 (HOP-62) was 38.3 µM (inactive), the GI50 (NCI-H23) was 16 µM (inactive) and the GI50 (ACHN) was 24 µM (inactive). For the same compound, the GI50 (LOX IMVI) was 2.24 µM (inactive), the GI50 (MCF7) was 37.7 µM (inactive) and the GI50 (M14) was 22.9 µM (inactive). For the same compound, the GI50 (SN12C) was 15.5 µM (inactive), the GI50 (NCI-H522) was 1.69 µM (inactive) and the GI50 (BT-549) was 21.2 µM (inactive). The GI50 (MDA-N) was 22.3 µM (inactive), the GI50 (EKVX) was 20.7 µM (inactive) and the GI50 (HCT-116) was 35.6 µM (inactive). For the same compound, the GI50 (HOP-92) was 15.3 µM (inactive) and the GI50 (SK-MEL-28) was 24.3 µM (inactive).
For COc1cccc(NCC(=O)Nn2c(-c3ccccc3)nc3ccccc3c2=O)c1, the GI50 (SW-620) was > 100 µM (inactive), the GI50 (HCT-15) was > 100 µM and the GI50 (SF-295) was > 100 µM (inactive). For the same compound, the GI50 (DU-145) was > 100 µM (inactive), the GI50 (OVCAR-3) was > 100 µM (inactive) and the GI50 (A549) was > 100 µM (inactive). The GI50 (Malme-3M) was > 100 µM (inactive), the GI50 (UACC-62) was 63.4 µM (inactive) and the GI50 (786-0) was > 100 µM (inactive). The GI50 (SK-OV-3) was > 100 µM (inactive), the GI50 (SF-539) was > 100 µM (inactive) and the GI50 (T47D) was > 100 µM (inactive). The GI50 (OVCAR-4) was > 100 µM (inactive), the GI50 (RXF 393) was > 100 µM (inactive) and the GI50 (KM12) was > 100 µM (inactive). For the same compound, the GI50 (SNB-75) was > 100 µM (inactive), the GI50 (HCC 2998) was > 100 µM (inactive) and the GI50 (K562) was > 100 µM (inactive). For the same compound, the GI50 (MDA-MB-231) was > 100 µM (inactive), the GI50 (MDA-MB-435) was > 100 µM (inactive) and the GI50 (HL-60) was > 100 µM (inactive). For the same compound, the GI50 (OVCAR-8) was > 100 µM (inactive), the GI50 (OVCAR-5) was > 100 µM (inactive) and the GI50 (NCI-H226) was > 100 µM (inactive). For the same compound, the GI50 (A498) was 17.6 µM (inactive), the GI50 (RPMI-8226) was > 100 µM (inactive) and the GI50 (HT-29) was > 100 µM (inactive). For the same compound, the GI50 (SK-MEL-5) was 57.7 µM (inactive), the GI50 (UACC-257) was > 100 µM (inactive) and the GI50 (CCRF-CEM) was 82 µM (inactive). The GI50 (IGROV-1) was 64.4 µM (inactive), the GI50 (SR) was > 100 µM (inactive) and the GI50 (UO-31) was > 100 µM (inactive). For the same compound, the GI50 (NCI/ADR-RES) was > 100 µM (inactive), the GI50 (U-251) was > 100 µM (inactive) and the GI50 (TK-10) was > 100 µM (inactive). The GI50 (PC-3) was > 100 µM (inactive), the GI50 (MOLT-4) was > 100 µM (inactive) and the GI50 (NCI-H460) was > 100 µM (inactive). The GI50 (Hs-578T) was > 100 µM (inactive), the GI50 (COLO 205) was > 100 µM (inactive) and the GI50 (SNB-19) was > 100 µM (inactive). For the same compound, the GI50 (SF-268) was > 100 µM (inactive), the GI50 (HOP-62) was > 100 µM (inactive) and the GI50 (NCI-H23) was > 100 µM (inactive). For the same compound, the GI50 (ACHN) was > 100 µM (inactive), the GI50 (LOX IMVI) was > 100 µM (inactive) and the GI50 (MCF7) was 52.2 µM (inactive). The GI50 (M14) was > 100 µM (inactive), the GI50 (SN12C) was > 100 µM (inactive) and the GI50 (NCI-H522) was > 100 µM (inactive). For the same compound, the GI50 (BT-549) was > 100 µM (inactive), the GI50 (EKVX) was 91.6 µM (inactive) and the GI50 (HCT-116) was > 100 µM (inactive). For the same compound, the GI50 (HOP-92) was 49.3 µM (inactive) and the GI50 (SK-MEL-28) was > 100 µM (inactive).
For COc1cc(/C=C2\N=C(c3ccccc3)N(c3cc4cc(Sc5ccccc5)ccc4[nH]3)C2=O)cc(OC)c1OC, the GI50 (SW-620) was 19.2 µM (inactive), the GI50 (HCT-15) was 14.4 µM and the GI50 (SF-295) was 20.7 µM (inactive). The GI50 (DU-145) was 15.2 µM (inactive), the GI50 (OVCAR-3) was 17.8 µM (inactive) and the GI50 (A549) was 19.5 µM (inactive). The GI50 (Malme-3M) was 2.96 µM (inactive), the GI50 (UACC-62) was 10.1 µM (inactive) and the GI50 (786-0) was 12.6 µM (inactive). For the same compound, the GI50 (SK-OV-3) was 21.6 µM (inactive), the GI50 (SF-539) was 12.3 µM (inactive) and the GI50 (T47D) was 8.17 µM (inactive). For the same compound, the GI50 (OVCAR-4) was 26 µM (inactive), the GI50 (RXF 393) was 10.1 µM (inactive) and the GI50 (KM12) was 15 µM (inactive). For the same compound, the GI50 (SNB-75) was 12.7 µM (inactive), the GI50 (HCC 2998) was 12.7 µM (inactive) and the GI50 (K562) was 4.25 µM (inactive). The GI50 (MDA-MB-435) was 3.84 µM (inactive), the GI50 (HL-60) was 14.6 µM (inactive) and the GI50 (OVCAR-8) was 12.6 µM (inactive). For the same compound, the GI50 (OVCAR-5) was 25.9 µM (inactive), the GI50 (NCI-H226) was 12.2 µM (inactive) and the GI50 (A498) was 13.8 µM (inactive). The GI50 (HT-29) was 16.1 µM (inactive), the GI50 (SK-MEL-5) was 10.6 µM (inactive) and the GI50 (UACC-257) was 14.8 µM (inactive). The GI50 (CCRF-CEM) was 16.9 µM (inactive), the GI50 (IGROV-1) was 15.5 µM (inactive) and the GI50 (SR) was 2.18 µM (inactive). The GI50 (UO-31) was 14.3 µM (inactive), the GI50 (CAKI-1) was 17.3 µM (inactive) and the GI50 (NCI/ADR-RES) was 20.2 µM (inactive). The GI50 (MOLT-4) was 10.1 µM (inactive), the GI50 (NCI-H460) was 14.3 µM (inactive) and the GI50 (Hs-578T) was 2.72 µM (inactive). For the same compound, the GI50 (COLO 205) was 11.3 µM (inactive), the GI50 (SNB-19) was 23.2 µM (inactive) and the GI50 (SF-268) was 2.16 µM (inactive). The GI50 (HOP-62) was 15 µM (inactive), the GI50 (NCI-H23) was 25.5 µM (inactive) and the GI50 (ACHN) was 18.4 µM (inactive). For the same compound, the GI50 (LOX IMVI) was 11.3 µM (inactive), the GI50 (MCF7) was 11.5 µM (inactive) and the GI50 (M14) was 11.4 µM (inactive). For the same compound, the GI50 (SN12C) was 15.2 µM (inactive), the GI50 (NCI-H522) was 2.96 µM (inactive) and the GI50 (BT-549) was 9.42 µM (inactive). The GI50 (MDA-N) was 3.72 µM (inactive), the GI50 (EKVX) was 17.5 µM (inactive) and the GI50 (HCT-116) was 11.7 µM (inactive). For the same compound, the GI50 (HOP-92) was 6.92 µM (inactive) and the GI50 (SK-MEL-28) was 12.9 µM (inactive).
